One data set has as its system orthotopic glioma. The settings on record: orthotopic murine model; cited from earlier work. From the text:
(§1) In turn, this difficulty may be due at least in part precisely to the TPP group, since the parent compound, PAP-1, is effective against various Central Nervous System (CNS) disorders. This difficulty is not surprising if one compares the characteristics of ...

Data set [1] concerns cultured glioma and glioblastoma cell lines. The settings on record: cited from earlier work.
From the text: as §1

Data set [2] is classed as in vivo, mouse. How it is done: The brains of these mice were analyzed to evaluate the presence of the construct in the tissue (see Section 4.7). Each brain was homogenized and incubated with an equal volume of phosphate-buffered saline (PBS, pH 12.5) for 24 h; 10 volumes of ethyl acetate were then added. After vigorous mixing, the organic phase was collected, concentrated and analyzed via HPLC. This procedure allows hydrolysis of the carbamate bond, leading to the extraction of PAPTPL, which is considered proportional to the amount of peptide-PAPTP conjugate (or its fragments) present in the brain.
The protocol set up for PAPTPL recovery turned out to be inefficient for the quantification of TAT-PAPTP. An alternative protocol was thus developed. Tissue obtained from untreated mice was weighed and homogenized with PBS pH 7.4 (1 vol) with a potter. The pre-established amount of analyte was added into tissue homogenates and, after thorough vortexing, 1 vol of PBS pH 12.5 was added and the sample was incubated with intermittent vortexing at 60 °C for 24 h. This step is required to allow the hydrolysis of the carbamate bond connecting the peptide and PAPTPL. 10 vol of ethyl acetate were added and, after vortexing and sonication for 2 min, the sample was centrifuged at 12,000× g, 7 min, Room Temperature. The organic phase was collected and concentrated with Hetovac VR-1. ACN was added to the concentrated sample to allow the resuspension of PAPTPL and analyzed via HPLC. Quantification was as described for PAPTPL.
Brain and liver obtained from untreated mice were weighed and homogenized with PBS pH 7.4 (1 vol) with a potter. The pre-established amount of analyte was added into tissue homogenates and, after thorough vortexing, 5 vol of acetone were added and the sample was sonicated for 2 min. Subsequently, 5 vol of ACN containing 0.1% trifluoracetic acid (TFA) were added and the sample was sonicated for 5 min. The sample was then centrifuged at 12,000× g for 7 min at 4 °C and the supernatant was collected, concentrated with a Hetovac VR-1, and analyzed via HPLC-UV.
To quantify the amount of An2-PAPTP stuck in the tissue, the pellet remaining after the procedure described above was incubated with intermittent Vortexing at 60 °C for 3 h with PBS pH 12.5/ACN 1:1 and then centrifuged at 12,000× g for 7 min. HPLC-UV analysis of the supernatant, measuring PAPTPL hydrolyzed from the tissue, thus indirectly reflects the amount of An2-PAPTPL in the pellet (Scheme 3). Quantification was as described for PAPTPL.
(§2) A stock solution of the peptide-PAPTP conjugates was prepared in DMSO. TAT-PAPTP was administered at 8 and 5 μmol/kg bw and An2-PAPTP only at 5 μmol/kg bw. The calculated quantity of drugs was diluted from the stock solution in saline or mouse plasma to a final volume of 200 μL.

Another data set has as its system SHSY-5Y cells. In words: MTS cell viability assay. Format: cell-based. The settings on record: 24 h treatment, 20, 10 and 3 μM, absorbance 490 nm, n = 3. How it is done:
SHSY-5Y cells (kindly provided by I. Szabò) were grown in Dulbecco’s Modified Eagle Medium (DMEM, Aurogene) supplemented with 10% (v/v) fetal bovine serum (FBS), 100 U/mL penicillin G, 0.1 mg/mL streptomycin and 5% glutamine.
SHSY-5Y cells were seeded (10,000 cells/well) in standard 96-well plates in DMEM (200 µL). After 24 h, the growth medium was replaced with a medium containing PAPTP and PAPTPL (from a stock solution in DMSO) at the desired final concentrations (20, 10 and 3 μM). DMEM without additions (CONTROL in Figure 2) was used as negative control. The final concentration of DMSO was 0.1% or lower in all cases (including control). After incubation for 24 h, 20 µL of CellTiter 96 AQUEOUS One solution (Promega, Italy) were added to each well and the plate was incubated at 37 °C in a humidified, 5% CO2 atmosphere for 4 h. Absorbance was measured at 490 nm to detect formazan formation.

Data set [3] can be described thus: Visible precipitation in mouse plasma vehicle. The conditions noted are these: mouse plasma used as administration vehicle. In kind it is physicochemical. From the text:
We are not aware of other pharmacological studies utilizing plasma as a vehicle, but a precedent of sorts is provided by some rejuvenation or induced aging studies that examined the systemic effects of heterologous plasma administration.

A further data set has as its system C57BL mice. Briefly: Observed toxicity after tail vein injection. Format: in vivo. The conditions noted are these: 5 µmoles/kg bw by tail vein injection in mouse plasma, no proper toxicological study. On the procedure:
TAT-PAPTP (5 µmoles/kg bw) was administered by tail vein injection to 2 C57BL mice. […] The observed toxicity was not due to the use of plasma, since mice were not made ill by the administration of PAPTP or An2-PAPTP in the same vehicle (see below, Section 2.7).
as §2

The test system of another data set is mouse Red Blood Cells. In words: Haemolysis assay. Format: cell-based. The conditions noted are these: 5 × 10^7 mouse erythrocytes in 1 mL PBS pH 7.4, 2, 1 or 0.5 µM, 15 min, absorbance 540 nm, n = 3. How it is done:
Haemolysis studies were conducted as described in [72]. Briefly, freshly withdrawn blood samples were centrifuged at 1000× g for 10 min to obtain erythrocytes; the pellet was then washed thrice with sterile PBS (pH 7.4). Erythrocytes (5 × 10^7 cells in 1 mL of PBS for each experimental condition) were incubated with 2, 1 or 0.5 µM An2-PAPTP or TAT-PAPTP for 15 min. The samples were then centrifuged and absorbance (Abs) of the supernatant was measured at 540 nm. Triton X-100 1% and PBS were used as positive and negative control, respectively.
The percentage of haemolysis was calculated with the following equation:% haemolysis = [(Abssample − AbsPBS)/AbsTriton X-100 − AbsPBS)] × 100

Data set [4] can be described thus: Stability in blood (hydrolysis, PAPTPL release). The settings on record: fresh heparinized C57BL mouse blood, 37 °C, 5 µM from 5 mM DMSO stock, HPLC-UV, % PAPTPL released relative to amount spiked, mean, n = 5 (An2-PAPTP) and 4 (TAT-PAPTP). In kind it is in vitro ADME. How it is done: C57BL mice were anesthetized and blood was withdrawn from the jugular vein and heparinized. Blood samples (1 mL) were spiked with compound (5 µM; dilution from a 5 mM stock solution in DMSO) and incubated at 37 °C for 4 h (the maximum period allowed by blood stability). Aliquots were taken after 10 min, 30 min, 1 h, 2 h, and 4 h before HPLC-UV analysis.
Each aliquot was treated as described above (Section 4.7.1). Compound stability in blood was expressed as % of PAPTPL released relative to the amount of An2-PAPTP and TAT-PAPTP spiked in the sample at time 0.

Data set [5] is described as follows: Aqueous solubility determination. In kind it is physicochemical. The settings on record: kinetic, 25 mM DMSO stock diluted to 100 μM (DMSO < 0.4%), supernatant HPLC/UV. How it is done:
For TAT-PAPTP and An2-PAPTP, three distinct suspensions were prepared by diluting 25 mM stock solutions in DMSO to 100 μM, in 0.9% NaCl saline or water (DMSO < 0.4%). The suspensions were sonicated 5 min and immediately analyzed. The suspensions were then centrifuged at 12,000× g, 18 °C, for 1 and 2 h, and the supernatants were analyzed by HPLC/UV at the end of each centrifugation. An additional analysis was performed after 24 h of standing. The chromatographic peak areas were used to determine the concentration of the compound in the supernatants, based on calibration curves built using solutions in DMSO.

A short description of data set [6]: kidneys after tail vein injection. The settings on record: C57BL/6 mice, up to 60 min.
Data set [7] in a line: liver extract after tail vein injection. The conditions noted are these: C57BL/6 mice, up to 60 min.
Data set [8] is described as follows: spleen after tail vein injection. The conditions noted are these: C57BL/6 mice, up to 60 min.
Data set [9] can be described thus: fresh mouse blood, withdrawn from the jugular vein and heparinized. The settings on record: C57BL mice, 37 °C, up to 4 h.
Data set [10] is described as follows: heart after tail vein injection. The settings on record: C57BL/6 mice, up to 60 min.
A short description of data set [11]: Planar bilayer experiments (membrane permeabilization). The settings on record: 2 µM added to cis side, DPhPC bilayer, −40 mV, n = 3. On the procedure: The possible effects of An2-PAPTP and TAT-PAPTP on phospholipid membranes were investigated using the lipid bilayer technique. Bilayers with a capacity of 100–150 pF were prepared “painting” a diphytanoylphosphatidylcholine (DPhPC, Avanti Polar Lipids) solution in octane across a 150-µm hole in a Delrin cuvette (Warner Instruments, a division of Harvard Bioscience, Inc., Holliston, MA, USA). The two compartments separated by the bilayer are identified as cis and trans, and all voltages refer to the cis side, zero being assigned to the trans (grounded) one. One mL of recording solution (150 mM KCl, 10 mM HEPES/KOH, pH 7.4) was placed in both compartments. The contents of both chambers were stirred by magnetic bars when necessary. […] An2-PAPTP or TAT-PAPTP (DMSO stock solution) in a final concentration of 0.5 µM were added to the cis side. The final concentration of DMSO was 0.6%. 2 µM gramicidin from Bacillus brevis (Sigma) was added to the cis side as control.
Electrical connections were made using Ag/AgCl electrodes and agar salt bridges to minimize eliminate liquid junction potentials. Data were acquired at 10 kHz using a Bilayer Clamp BC-525C amplifier (Warner Instruments, a division of Harvard Bioscience, Inc., Holliston, MA, USA.) and low-pass filtered at 300 Hz for presentation. […]

“Also recorded” adds a separate entry of the source.

For `O=c1ccc2c(OCCCCOc3ccc(CCC[P+](c4ccccc4)(c4ccccc4)c4ccccc4)cc3)c3ccoc3cc2o1.[I-]` [PAPTP, (3-(4-(4-((7-oxo-7H-furo[3,2-g]benzopyran-4-yl)oxy)butoxy)phenyl)propyl) triphenyl phosphonium iodide], the “effect on tumor growth” value in the data set with orthotopic glioma is “did not affect tumor growth”. Further, the “killing of cultured glioma and glioblastoma cell lines” value in data set [1] is on record as “efficiently killed”. Also, the “level in brain after i.v. PAPTP” value in data set [2] (PAPTP 5 µmoles/kg bw i.v. in mouse plasma, same procedure) is reported as “did not reach detectable levels”. The “cytotoxic effect (cell viability, MTS reduction assay)” value with SHSY-5Y cells is “marked cytotoxicity”. In addition, in data set [3], the “visible precipitates in plasma” value is “did not form visible precipitates”. For the same compound, in the data set with C57BL mice, the “observed toxicity in mice” value is listed as “not made ill; also recorded: No sign of toxicity was observed”.
As to `O=C(NCCC[P+](c1ccccc1)(c1ccccc1)c1ccccc1)Oc1ccc(OCCCCOc2c3ccoc3cc3oc(=O)ccc23)cc1.[I-]` [PCARBTP, (3-(((4-(4-((7-oxo-7H-furo[3,2-g]chromen-4-yl)oxy)butoxy)phenoxy)carbonyl)amino)propyl)triphenylphosphonium iodide], the “effect on tumor growth” value in the data set with orthotopic glioma is given as “did not affect tumor growth”. Also, the “killing of cultured glioma and glioblastoma cell lines” value in data set [1] is recorded as “efficiently killed”.
With `CC[C@H](C)[C@H](NC(=O)Oc1ccc(CCCOc2ccc([P+](CCCc3ccc(OCCCCOc4c5ccoc5cc5oc(=O)ccc45)cc3)(c3ccccc3)c3ccccc3)cc2)cc1)C(=O)NCC(=O)N[C@@H](CCCNC(=N)N)C(=O)N[C@@H](CCCCN)C(=O)N[C@@H](CCCCN)C(=O)N[C@@H](CCCNC(=N)N)C(=O)N[C@@H](CCCNC(=N)N)C(=O)N[C@@H](CCC(N)=O)C(=O)N[C@@H](CCCNC(=N)N)C(=O)N[C@@H](CCCNC(=N)N)C(=O)N[C@@H](CCCNC(=N)N)C(=O)N1CCC[C@H]1C(=O)N1CCC[C@H]1C(=O)N[C@@H](CCC(N)=O)C(=O)NCC(=O)O` [TAT-PAPTP], in the data set with mouse Red Blood Cells, the “haemolysis (release of haemoglobin)” value is on record as “did”. The “construct level in brain” value in [2] (TAT-PAPTP 5 µmoles/kg bw i.v. tail vein in mouse plasma, 2 C57BL mice sacrificed within 15 min, PAPTPL extracted after hydrolysis at pH 12.5, HPLC) is 0.2–0.3 nmoles/g fresh tissue. Moreover, the “hydrolyzed in mouse blood over 4 h (PAPTPL released)” value in [4] is recorded as “more stable”. Further, the “observed toxicity in mice” value is “evident signs of illness (respiratory difficulties, trailing limbs, swelling of the paws)” in the data set on C57BL mice; “more toxic than its individual components (TAT and PAPTP) as well as than An2-PAPTP” in the data set on C57BL mice (listed as TAT-PAPT). For the same compound, the “solubility in 0.9% NaCl saline” value in data set [5] (0.9% NaCl saline, sonicated 5 min, centrifuged 12,000 × g 18 °C 1 and 2 h, detection limit 0.1 µM) is greater than 100 µM. In [5] (water, sonicated, centrifuged 12,000 × g 18 °C), this compound showed a solubility in water greater than 100 µM.
With HN-ITFFYGGSRGKRNNFKTEEY-OH, the fragment found result is given as “PAPTPL-I, 15 min; also recorded: PAPTPL-IT, 15 min; also recorded: PAPTPL-ITF, 15 min” in data set [6]; “PAPTPL-I, 15 min; also recorded: PAPTPL-IT, 15 min; also recorded: PAPTPL-ITF, 15 min” in [7]; “PAPTPL-ITF, 15 min; also recorded: PAPTPL-I, 15 min; also recorded: PAPTPL-IT, 15 min” in data set [8]; “PAPTPL, 15 min; also recorded: PAPTPL-IT, 30 min; also recorded: PAPTPL-ITF, 30 min” in [10]. The cleaved bond entry in [9] is “hydrolysis of the carbamate bond connecting the peptide and PAPTPL, 10 min”.
Regarding gramicidin, the “appearance of ion currents in planar bilayers (control)” value in data set [11] is “expected development of “fast” ion currents”.
